Broadly, the IC50 is the concentration that inhibits the measured activity by half.

We go through 24 compounds from patent US20180042931A1 (Bayer Pharma Aktiengesellschaft, priority 2015, published 2018).

The subject of assay [1] is FOP control vector (randomized, non-functional sequence instead of functional TCF elements) in HCT116 cells. The assay can be described thus: Control reporter assay, HCT116 cells stably transfected with FOP control vector (HCT116-FOP), luciferase readout. The assay is classed as cell-based. The settings on record: Homo sapiens, HCT-116, 36 hours incubation, luciferase expression, dilution series up to 50 μM. The procedure: In a parallel approach, HCT116 cells were cotransfected with the FOP control vector and pcDNA3. The FOP vector is identical to the TOP construct, but it contains instead of functional TCF elements a randomized, non-functional sequence. For this transfection a stable transfected cell line was generated as well.
(§1) In preparation of the assay, the two cell lines were plated 24 hours before at 10000 cells per well of a 384 micro titre plate (MTP) in 30 μL growth medium. Selective inhibitory activity for small molecules on the mutated Wnt pathway was determined after parallel incubation of both (TOP and FOP) HCT116 reporter cell lines with a compound dilution series from 50 μM to 15 nM in steps of 3.16-fold dilutions in CAFTY buffer (130 mM NaCl, 5 mM KCl, 20 mM HEPES, 1 mM MgCl2, 5 mM NaHCO3, pH 7.4) containing 2 mM Ca^2+ and 0.01% BSA. The compounds were thereby serially prediluted in 100% DMSO and thereafter in addition 50 fold into the CAFTY compound dilution buffer (described above). From this dilution 10 μL were added to the cells in 30 μL growth medium and incubated for 36 hours at 37° C. and 5% CO2. Thereafter luciferase assay buffer (1:1 mixture of luciferase substrate buffer (20 mM Tricine, 2.67 mM MgSO4, 0.1 mM EDTA, 4 mM DTT, 270 μM Coenzyme A, 470 μM Luciferin, 530 μM ATP, ph adjusted to pH 7.8 with a sufficient volume of 5M NaOH) and Triton buffer (30 mL Triton X-100, 115 mL glycerol, 308 mg Dithiothreitol, 4.45 g Na2HPO4.2H2O, 3.03 g TRIS HCl, ad 1I H2O, pH 7.8) was added as equal volume to the compound solution on the cells to determine luciferase expression as a measure of Wnt signaling activity in a luminometer.
For orientation: In a reporter assay the amount or activity of a reporter protein is the signal.

The subject of assay [2] is constitutive active colorectal cancer cell (CRC) Wnt pathway. The assay can be described thus: Cellular reporter assay, HCT116 cells stably transfected with Super TopFlash vector (HCT116-TOP), luciferase readout. To be noted: Homo sapiens, HCT-116, 36 hours incubation, luciferase expression, average or median values. The assay is classed as cell-based. The procedure: In order to discover and characterize small molecules which inhibit the constitutive active colorectal cancer cell (CRC) Wnt pathway, a cellular reporter assay was employed. The corresponding assay cell was generated by transfection of the colorectal cancer cell line HCT116 (ATCC, #CCL-247) with the Super TopFlash vector (Morin, Science 275, 1997, 1787-1790; Molenaar et al., Cell 86 (3), 1996, 391-399). The HCT116 cell line is cultivated at 37° C. and 5% CO2 in DMEM/F-12 (Life Technologies, #11320-074), supplemented with 2 mM glutamine, 20 mM HEPES, 1.4 mM pyruvate, 0.15% Na-bicarbonate and 10% foetal bovine serum (GIBCO, #10270), this cancer cell line is pathophysiological relevant since it carries a deletion of position S45 in the β-catenin gene, leading to constitutive active Wnt signaling. Stable transfectants were generated by cotransfection with pcDNA3 and selection of stable transfected cells with 1 mg/mL G418.
as §1

The structures appear in SMILES notation.

Turning to `Cc1ccc(C(=O)Nc2ccc(-c3cccnc3)cc2)cc1NC(=O)C1(N2CCOCC2)CC1` [Example 24, 4-methyl-3-({[1-(morpholin-4-yl)cyclopropyl]carbonyl}amino)-N-[4-(pyridin-3-yl)phenyl]benzamide], the IC50 is no less than 50000 nM in assay [1] and 34.1 nM in assay [2].
For `O=C(CN1CCOCC1)Nc1cc(C(=O)Nc2ccc(-c3cccnc3)cc2)ccc1OC1CC1` [Example 35, 4-(cyclopropyloxy)-3-[(morpholin-4-ylacetyl)amino]-N-[4-(pyridin-3-yl)phenyl]benzamide], in that order: no less than 50000 nM and 23 nM.
For `Cn1cc(-c2ccc(NC(=O)c3ccc(OC(F)(F)F)c(NC(=O)CN4CCOCC4)c3)cc2)cn1` [Example 5, N-[4-(1-methyl-1H-pyrazol-4-yl)phenyl]-3-[(morpholin-4-ylacetyl)amino]-4-(trifluoromethoxy)-benzamide], in that order: no less than 50000 nM and 160 nM.
For `O=C(CN1CCOCC1)Nc1cc(C(=O)Nc2ccc(-c3cccnc3F)cc2)ccc1OC(F)(F)F` [Example 4, N-[4-(2-fluoropyridin-3-yl)phenyl]-3-[(morpholin-4-ylacetyl)amino]-4-(trifluoromethoxy)benzamide], in that order: no less than 50000 nM and 14.8 nM.
As to `Nc1ncc(-c2ccc(NC(=O)c3ccc(OC(F)(F)F)c(NC(=O)C4(N5CCOCC5)CC4)c3)cc2)cn1` [Example 19, N-[4-(2-aminopyrimidin-5-yl)phenyl]-3-({[1-(morpholin-4-yl)cyclopropyl]carbonyl}amino)-4-(trifluoromethoxy)benzamide], the IC50 was no less than 50000 nM in assay [1] and 3.2 nM in assay [2].
For `Nc1ncc(-c2ccc(NC(=O)c3ccc(OC(F)(F)F)c(NC(=O)CN4CCOCC4)c3)cc2)cn1` [Example 3, N-[4-(2-aminopyrimidin-5-yl)phenyl]-3-[(morpholin-4-ylacetyl)amino]-4-(trifluoromethoxy)-benzamide], in that order: no less than 50000 nM and 49 nM.
For `COc1ccc(-c2ccc(NC(=O)c3ccc(OC(F)(F)F)c(NC(=O)CN4CCOCC4)c3)cc2)cn1` [Example 15, N-[4-(6-methoxypyridin-3-yl)phenyl]-3-[(morpholin-4-ylacetyl)amino]-4-(trifluoromethoxy)benzamide], in that order: no less than 50000 nM and 545 nM.
Take `Cc1ccc(-c2ccc(NC(=O)c3ccc(OC(F)(F)F)c(NC(=O)CN4CCOCC4)c3)cc2)cn1` [Example 13, N-[4-(6-methylpyridin-3-yl)phenyl]-3-[(morpholin-4-ylacetyl)amino]-4-(trifluoromethoxy)benzamide]: the IC50 is no less than 50000 nM in assay [1] and 557 nM in assay [2].
For `COc1ccc(NC(=O)c2ccc(-c3cncnc3)cc2)cc1NC(=O)CN1CCOCC1` [Example 2, N-{4-methoxy-3-[(morpholin-4-ylacetyl)amino]phenyl}-4-(pyrimidin-5-yl)benzamide], in that order: no less than 50000 nM and 3110 nM.
For `CN(C)c1ncc(-c2ccc(NC(=O)c3ccc(OC(F)(F)F)c(NC(=O)CN4CCOCC4)c3)cc2)cn1` [Example 10, N-{4-[2-(dimethylamino)pyrimidin-5-yl]phenyl}-3-[(morpholin-4-ylacetyl)amino]-4-(trifluoromethoxy)benzamide], in that order: no less than 50000 nM and 60.9 nM.
Turning to `CN1CCN(CC(=O)Nc2cc(C(=O)Nc3ccc(-c4cnc(N)nc4)cc3)ccc2OC(F)(F)F)CC1` [Example 33], the values for the IC50 in assay [1] and in assay [2] were no less than 50000 nM and 55.5 nM, respectively.
For `CN1CCN(CC(=O)Nc2cc(C(=O)Nc3ccc(-c4cccnc4F)cc3)ccc2OC(F)(F)F)CC1` [Example 31, N-[4-(2-fluoropyridin-3-yl)phenyl]-3-{[(4-methylpiperazin-1-yl)acetyl]amino}-4-(trifluoromethoxy)benzamide], in that order: 38500 nM and 31.8 nM.
For `Nc1ccc(-c2ccc(NC(=O)c3ccc(OC(F)(F)F)c(NC(=O)CN4CCOCC4)c3)cc2)cn1` [Example 7, N-[4-(6-aminopyridin-3-yl)phenyl]-3-[(morpholin-4-ylacetyl)amino]-4-(trifluoromethoxy)benzamide], in that order: no less than 50000 nM and 22.8 nM.
In the case of `COc1ccc(NC(=O)c2ccc(-c3cccnc3)cc2)cc1NC(=O)CN1CCOCC1` [Example 38, N-{4-methoxy-3-[(morpholin-4-ylacetyl)amino]phenyl)-4-(pyridin-3-yl)benzamide], the figures for the 50% inhibitory concentration (IC50) in assay [1] and in assay [2] were no less than 50000 nM and 10900 nM, respectively.
For `CN1CCN(CC(=O)Nc2cc(C(=O)Nc3ccc(-c4ccc(N)nc4)cc3)ccc2OC(F)(F)F)CC1` [Example 34, N-[4-(6-aminopyridin-3-yl)phenyl]-3-{[(4-methylpiperazin-1-yl)acetyl]amino}-4-(trifluoromethoxy)-benzamide], in that order: 28000 nM and 25.3 nM.
For `COc1ccc(NC(=O)c2ccc(-c3ccc(N)nc3)cc2)cc1NC(=O)CN1CCOCC1` [Example 1, 4-(6-aminopyridin-3-yl)-N-{4-methoxy-3-[(morpholin-4-ylacetyl)amino]phenyl}benzamide], in that order: no less than 50000 nM and 625 nM.
For `O=C(CN1CCOCC1)Nc1cc(C(=O)Nc2ccc(-c3cn[nH]c3)cc2)ccc1OC(F)(F)F` [Example 6, 3-[(morpholin-4-ylacetyl)amino]-N-[4-(1H-pyrazol-4-yl)phenyl]-4-(trifluoromethoxy)benzamide], the IC50 was no less than 50000 nM in assay [1] and 180 nM in assay [2].
Take `Nc1ncc(-c2ccc(NC(=O)c3ccc(Cl)c(NC(=O)C4(N5CCOCC5)CC4)c3)cc2)cn1` [Example 23, N-[4-(2-aminopyrimidin-5-yl)phenyl]-4-chloro-3-({[1-(morpholin-4-yl)cyclopropyl]carbonyl}amino)-benzamide]: the IC50 is no less than 50000 nM in assay [1] and 26.2 nM in assay [2].
For `O=C(Nc1ccc(-c2cccnc2F)cc1)c1ccc(Cl)c(NC(=O)C2(N3CCOCC3)CC2)c1` [Example 22, 4-chloro-N-[4-(2-fluoropyridin-3-yl)phenyl]-3-({[1-(morpholin-4-yl)cyclopropyl]carbonyl}amino)-benzamide], in that order: no less than 50000 nM and 140 nM.
For `COc1ncc(-c2ccc(NC(=O)c3ccc(OC(F)(F)F)c(NC(=O)CN4CCOCC4)c3)cc2)cn1` [Example 9, N-[4-(2-methoxypyrimidin-5-yl)phenyl]-3-[(morpholin-4-ylacetyl)amino]-4-(trifluoromethoxy)-benzamide], in that order: no less than 50000 nM and 410 nM.
For the compound `O=C(CN1CCOCC1)Nc1cc(C(=O)Nc2ccc(-c3cnc(N4CCC4)nc3)cc2)ccc1OC(F)(F)F` [Example 11, N-{4-[2-(azetidin-1-yl)pyrimidin-5-yl]phenyl}-3-[(morpholin-4-ylacetyl)amino]-4-(trifluoromethoxy)benzamide], the IC50 in assay [1] is no less than 50000 nM; in assay [2], 200 nM.
For `Cc1ncccc1-c1ccc(NC(=O)c2ccc(OC(F)(F)F)c(NC(=O)CN3CCOCC3)c2)cc1` [Example 16, N-[4-(2-methylpyridin-3-yl)phenyl]-3-[(morpholin-4-ylacetyl)amino]-4-(trifluoromethoxy)benzamide], the IC50 in assay [1] amounted to 41500 nM; in assay [2] it was 117 nM.
For `Nc1ccc(-c2ccc(NC(=O)c3ccc(OC(F)F)c(NC(=O)CN4CCOCC4)c3)cc2)cn1` [Example 29, N-[4-(6-aminopyridin-3-yl)phenyl]-4-(difluoromethoxy)-3-[(morpholin-4-ylacetyl)amino]benzamide], in that order: no less than 50000 nM and 48.8 nM.
In the case of `O=C(CN1CCOCC1)Nc1cc(C(=O)Nc2ccc(-c3cccnc3)cc2)ccc1OC(F)(F)F` [Example 18, 3-[(morpholin-4-ylacetyl)amino]-N-[4-(pyridin-3-yl)phenyl]-4-(trifluoromethoxy)benzamide], the IC50 in assay [1] is no less than 50000 nM; in assay [2], 78.7 nM.
